“Also recorded” adds a separate entry of the source. Counter-ions that a name gives are not always drawn.
Assays:
male mice = test: Acute toxicity by intraperitoneal administration; format: in vivo, mouse; conditions: i.p.
Method: (§1) In the neuropsychopharmacological study which follows, a solution of CRL 41 153 in distilled water (pH 1.5) was administered intraperitoneally in a volume of 20 ml/kg to male mice and 5 ml/kg to male rats.

mice [1] = test: Overall behavior and reactivities in mice; format: in vivo, mouse; conditions: i.p.
Method: as §1
Groups of three animals are observed before and then 0.25 hour, 0.50 hour, 1 hour, 2 hours, 3 hours and 24 hours after the administration of CRL 41 153.

mice [2] = test: Interaction with apomorphine in mice; format: in vivo, mouse; conditions: i.p.
Method: Groups of 6 mice receive CRL 41 153 0.5 hour before the subcutaneous injection of 1 or 16 mg/kg of apomorphine.

rats = test: Interaction with apomorphine in rats; format: in vivo, rat; conditions: i.p.
Method: CRL 41 153 is administered to groups of 6 rats 0.5 hour before the subcutaneous injection of 0.5 mg/kg of apomorphine.

mice [3] = test: Interaction with reserpine; format: in vivo, mouse; conditions: i.p.
Method: Four hours after the intraperitoneal injection of 2.5 mg/kg of reserpine, groups of 6 mice receive CRL 41 153.

mice [4] = test: Interaction with oxotremorine; format: in vivo, mouse; conditions: i.p.
Method: CRL 41 153 is administered to groups of 6 mice 0.5 hour before the intraperitoneal injection of 0.5 mg/kg of oxotremorine.

mice [5] = test: Four plate test, traction and electric shock; format: in vivo, mouse; conditions: i.p.
Method: The test is performed on groups of 10 mice 30 minutes after the administration of CRL 41 153.

mice [6] = test: Spontaneous motility; format: in vivo, mouse; conditions: i.p.
Method: 0.5 hour after they have received CRL 41 153, the mice (6 per dose, 12 control animals) are placed in an actimeter, where their motility is recorded for 30 minutes.

mice [7] = test: Motility reduced by hypoxic aggression; format: in vivo, mouse; conditions: i.p.
Method: Half an hour after they have received CRL 41 153, the mice (10 per dose, 20 control animals) are subjected to acute hypobaric anoxia [pressure reduction of 600 mm Hg (i.e. about 8×10^4 Pa) in 90 seconds; release of vacuum in 45 seconds] and are then placed in an actimeter, where their motility is recorded for 10 minutes.

mice [8] = test: Asphyxiant anoxia (gallamine triiodoethylate); format: in vivo, mouse; conditions: i.p., curarizing agent
Method: Groups of 10 mice receive CRL 41 153 half an hour before the intraperitoneal administration of 32 mg/kg of gallamine triiodoethylate (reference curarizing agent).

mice [9] = test: Interaction with barbital; format: in vivo, mouse; conditions: i.p., barbital 220 mg/kg
Method: Half an hour after the administration of CRL 41 153, groups of 10 mice receive an intraperitoneal injection of barbital (220 mg/kg).

mice [10] = test: Behavioral despair; format: in vivo, mouse; conditions: forcibly immersed mice, i.p.
Excerpt: Half an hour after they have received CRL 41 153, groups of 6 mice are placed in a beaker filled with water to a height of 6 cm. The total period of immobility between the 2nd and 6th minutes following immersion is noted.

dogs = test: Cardiovascular study in anesthetized dogs; format: in vivo, dog; conditions: anesthetized dogs
How it was run: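 Nembutal-anaesthetized dogs (~14 kg) given CRL 41 194 (n=2) or CRL 41 221 (n=4) intraduodenally at successive 0.1, 0.5, 1, 2.5, 5 and 10 mg/kg doses. Blood pressure, heart rate, femoral and vertebral flow, rectal temperature measured; skin colour observed, plus bile colour (CRL 41 194).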

[11] = system: gravid White New Zealand female rabbits; test: Teratogenicity in gravid White New Zealand rabbits; format: in vivo, rabbit; conditions: day 5 to day 18 of gestation; for Affected foetuses, %: normal limit 1.5%
How it was run: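 Fetuses harvested by cesarean on gestation day 29 were scored for number and for any malformation (limb blockade, anury, tail or skull defects, exencephaly).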

CNS [12] = test: Neuropsychopharmacological profile as a whole; format: in vivo, mice and rats
Method: as §1

CNS [13] = test: Complementary tests by oral (gastric) administration; format: in vivo
[14] = system: nigrostriatal dopaminergic system; test: Interaction with alpha-methyltyrosine on stereotypies (difference from amphetamine); conditions: α-methyltyrosine (catecholamine synthesis blocked)

SMILES: CC(C)NC(C)C(=O)c1ccc(N)cc1 (stereo not shown) [CRL 41 153, 1-(4-aminophenyl)-2-isopropylaminopropanone dihydrochloride]
- LD0 (maximum non-lethal dose) (male mice): greater than 64 mg/kg
- LD60 (male mice): about 128 mg/kg
- Observed symptoms (mice [1]; 0.5 mg/kg): no particular symptoms
- Observed symptoms (mice [1]; 2 mg/kg, dihydrochloride): excitation of low intensity 0.5 hour after administration; also recorded: stereotypies for 1 hour; also recorded: an increase in the fear reaction (for 1 hour) and in the reactivity to touch (2 to 3 hours after administration)
- Observed symptoms (mice [1]; 8 mg/kg, dihydrochloride): excitation for 3 hours; also recorded: an increase in the fear reaction (for 3 hours) and in the reactivity to touch (for 24 hours)
- Hyperthermia (temperature change) (mice [1]; 32 mg/kg, 0.5 hour after administration): +1.1 °C
- Observed symptoms (mice [1]; 32 mg/kg, dihydrochloride): excitation and stereotypies for 3 hours; also recorded: an increase in the fear reaction (for 2 hours) and in the reactivity to touch (for 24 hours); also recorded: moderate mydriasis
- Effect on hypothermia induced by apomorphine (mice [2]): at doses of 2 mg/kg, 8 mg/kg and 32 mg/kg, CRL 41 153 (which is hyperthermic at the said doses) opposes the hypothermia induced by apomorphine
- Effect on righting behavior and stereotypies induced by apomorphine (mice [2]): without modifying the righting behavior and stereotypy behavior
- Effect on stereotypies induced by apomorphine (rats): as from a dose of 0.5 mg/kg, CRL 41 153 potentiates the stereotypies induced by apomorphine
- Effect on hypothermia induced by reserpine (mice [3]): as from a dose of 0.5 mg/kg, CRL 41 153 strongly opposes tbe hypothermia
- Effect on ptosis induced by reserpine (mice [3]): as from a dose of 0.5 mg/kg, CRL 41 153 strongly opposes tbe hypothermia and ptosis induced by reserpine
- Effect on hypothermic action of oxotremorine (mice [4]): at doses of 2 mg/kg, 8 mg/kg and 32 mg/kg, CRL 41 153 opposes the hypothermic action of oxotremorine
- Effect on trembling induced by oxotremorine (mice [4]): at doses of 8 mg/kg and 32 mg/kg, CRL 41 153 partially antagonizes the trembling induced by oxotremorine
- Action on the peripheral cholinergic symptoms (mice [4]; oxotremorine): moderate α-adrenergic stimulant effect
- Effect on convulsant effects of electric shock (mice [5]): at high doses, CRL 41 153 antagonizes the convulsant effects of electric shock
- Spontaneous motor activity (mice [6]): increases the spontaneous motor activity of mice
- Motor recovery of mice after hypobaric hypoxia (mice [7]): as from a dose of 0.5 mg/kg, CRL 41 153 causes a distinct improvement in the motor recovery
- Time taken for convulsions to occur (mice [8]): at a dose of 32 mg/kg, CRL 41 153 reduces the time taken for convulsions to occur
- Time taken for death to occur (mice [8]): does not change the time taken for death to occur
- Duration of the sleep induced by barbital (mice [9]): reduces the duration of the sleep induced by barbital (total antagonism is obtained at doses of 8 mg/kg and 32 mg/kg)
- Time taken to fall asleep (barbital) (mice [9]): at doses of 0.5 to 32 mg/kg, CRL 41 153 increases the time taken to fall asleep
- Period of immobility due to despair (mice [10]): at doses greater than or equal to 0.5 mg/kg, CRL 41 153 reduces the period of immobility
- Effect of propanolol or atenolol on the action of the product (dogs): The increase in the femoral and vertebral flows is suppressed by propanolol
- Effects of isoprenaline on the blood pressure (dogs): does not modify the effects of isoprenaline on the blood pressure
- Reflex bradycardia caused by hypertension (dogs): The reflex bradycardia caused by hypertension is converted to tachycardia
- α-adrenergic stimulant effect (dogs): moderate α-adrenergic stimulant effect
- Blood flow through the femoral artery (dogs; oral, 2.5 to 5 mg/kg): increases the blood flow through the femoral artery
- Blood flow through the vertebral artery (dogs; oral, 2.5 to 5 mg/kg): increases the blood flow through the femoral artery and the blood flow through the vertebral artery at doses of 2.5 to 5 mg/kg
- Affected foetuses, number ([11]; 5 mg/kg daily): 0
- Total foetuses (live) ([11]; 5 mg/kg daily): 90
- Affected foetuses, % ([11]; 5 mg/kg daily): 0%
- Affected foetuses, number ([11]; 10 mg/kg daily): 1
- Total foetuses (live) ([11]; 10 mg/kg daily): 88
- Affected foetuses, % ([11]; 10 mg/kg daily): 1.13%
- Affected foetuses, number ([11]; 50 mg/kg daily): 0
- Total foetuses (live) ([11]; 50 mg/kg daily): 93
- Affected foetuses, % ([11]; 50 mg/kg daily): 0%
- Anticonvulsant effects (overall) (CNS [12]; conclusion of the tests): anticonvulsant effects: at a high dose
- Antidepressant effects (overall) (CNS [12]; conclusion of the tests): behaves as an antidepressant for the CNS
- Stimulant effects (overall) (CNS [12]; conclusion of the tests): distinct stimulant component
- α-adrenergic stimulant effects (overall) (CNS [12]; conclusion of the tests): peripheral α-adrenergic stimulant effects
- Peripheral α-adrenergic signs (mydriasis, salivation, lacrimation, exophthalmos) (CNS [12]; species and dose not stated): mydriasis (with neither piloerection nor salivation)
- Hypothermia induced by apomorphine (CNS [13]; gastric): antagonism of the hypothermia induced by apomorphine
- Motility (CNS [13]; gastric): hypermotility
- Sleep induced by barbital (CNS [13]; gastric): reduction in the sleep induced by barbital
- Action on gastric (oral) administration compared with intraperitoneal (CNS [13]; gastric vs i.p., dihydrochloride): very active substance; also recorded: same types of action on gastric administration as after intraperitoneal administration
- minimal effective dose (CNS [13]; po, gastric, read-out: Dose as from which antidepressant and stimulant and/or arousing effects appear): ≥ 4 mg/kg
- Effect of alpha-methyltyrosine on the stereotypies induced by the substance [14]: only reduces them
